In the NIST ThermoML archive (doi:10.1021/acs.jced.6b00786):
Numbers after ± are expanded uncertainties.

Experiments:
[1] = 101 kPa, Liquid, Vibrating tube method
[2] = xn = mol fraction of the nth substance listed; details: 101 kPa, Liquid, Vibrating tube method, x2 = 0

SMILES: NC=O [formamide]
- mass density ([1]; 278.15 K): 1146.62 ± 0.2 kg/m3
- mass density ([1]; 288.15 K): 1138.17 ± 0.19 kg/m3
- mass density ([1]; 298.15 K): 1129.73 ± 0.19 kg/m3
- mass density ([1]; 308.15 K): 1121.22 ± 0.18 kg/m3
- mass density ([1]; 323.15 K): 1108.46 ± 0.17 kg/m3
- mass density ([1]; 333.15 K): 1099.88 ± 0.17 kg/m3

SMILES: O [water]
- mass density ([1]; 274.15 K): 999.899 ± 0.043 kg/m3
- mass density ([1]; 275.15 K): 999.94 ± 0.043 kg/m3
- mass density ([1]; 276.15 K): 999.964 ± 0.043 kg/m3
- mass density ([1]; 277.15 K): 999.972 ± 0.049 kg/m3
- mass density ([1]; 278.15 K): 999.964 ± 0.043 kg/m3
- mass density ([1]; 279.15 K): 999.94 ± 0.043 kg/m3
- mass density ([1]; 280.15 K): 999.901 ± 0.043 kg/m3
- mass density ([1]; 281.15 K): 999.848 ± 0.043 kg/m3
- mass density ([1]; 282.15 K): 999.781 ± 0.043 kg/m3
- mass density ([1]; 283.15 K): 999.699 ± 0.043 kg/m3
- mass density ([1]; 323.15 K): 988.03 ± 0.049 kg/m3
- mass density ([1]; 333.15 K): 983.191 ± 0.052 kg/m3

SMILES: O [water] + NC=O
- mass density ([2]; 274.15 K): 999.899 ± 0.043 kg/m3
- mass density ([2]; 275.15 K): 999.94 ± 0.043 kg/m3
- mass density ([2]; 276.15 K): 999.964 ± 0.043 kg/m3
- mass density ([2]; 277.15 K): 999.972 ± 0.049 kg/m3
- mass density ([2]; 278.15 K): 999.964 ± 0.043 kg/m3
- mass density ([2]; 279.15 K): 999.94 ± 0.043 kg/m3
- mass density ([2]; 280.15 K): 999.901 ± 0.043 kg/m3
- mass density ([2]; 281.15 K): 999.848 ± 0.043 kg/m3
- mass density ([2]; 282.15 K): 999.781 ± 0.043 kg/m3
- mass density ([2]; 283.15 K): 999.699 ± 0.043 kg/m3
- mass density ([2]; 323.15 K): 988.03 ± 0.049 kg/m3
- mass density ([2]; 333.15 K): 983.191 ± 0.052 kg/m3
